According to patent publication US11912710B2 (UPPTHERA, INC., priority 2021, dated 2024):
Read-outs that look alike come from different tables or passages of the source.

Assays:
Assay type in all cases: cell-based
MRC-5 cell line = experiment: Cell viability assay (cytotoxicity) for MRC-5 cell line; conditions: for IC50: Homo sapiens, MRC5, 120 h
Experimental: 4. Cell Viability Assay for MRC-5 Cell Line
(1) Culture of MRC-5 Cell Line
Passage of cultured cells was maintained within P15.
(2) Treatment of Compounds of the Present Invention
Then, it was cultured in 37° C.
(3) Cytotoxicity Experiment
CO2 incubator for 4 hours.
Cell Viability Assay for MRC-5 cell line

NCI-H526 cell line = experiment: Cell viability assay for H526 cell line; conditions: Homo sapiens, NCI-H526, 120 h; H526 cells, 5 days, EZ-Cytox, 3000 nM to 0.46 nM
Experimental: 3. Cell Viability Assay for H526 Cell Line
(1) Culture of NCI-H526 Cell Line
(2) Treatment of Compounds of the Present Invention and Method of Cell Viability Assay
After treating the compound to each well to make the total volume of 200 μL, it was cultured in a CO2 incubator (Thermo Fisher Science, Cat. No. 4111) for 5 days.
The absorbance of the completely cultured sample was measured by setting the wavelength of a plate reader (BMG Labtech, CLARIOstar Plus) to […], and was measured after shaking for 3 minutes in a plate reader before measurement.
In Table 3, Activity represents IC50 value of each Exemplary Compound treatment group to H526 cell line (A: <30 nM, B: <50 nM, C: <100 nM, D: <200 nM, E: <400 nM).

PLK1 = biological target: T1, PLK1 (Homo sapiens, UniProt P53350); experiment: Luciferase assay for PLK1 in HeLa LgBit (Plk1-HiBit KI) cell line; conditions: 300 nM compound, luminescence after 9 hours, read-out: Activity: ratio of the luminescense value of compound treatment group to DMSO treatment group
T1 construct: endogenous in cells; host or cells: HeLa LgBit (Plk1-HiBit KI): HeLa cells stably expressing LgBit, with HiBit knocked into the endogenous Plk1 locus by CRISPR/Cas9
Experimental: 2. Luciferase Assay for PLK1
(1) Preparation and Culture of HeLa LgBit (Plk1-HiBit KI) Cell Line
A HeLa cell line in which the LgBit vector was transfected and expressed stably was prepared. Then, after constructing gRNA and donor to express the HiBit amino acid sequence behind the C-terminal of the Plk1 gene, which was inherent in the cell, it was inserted into the cell together with a vector capable of expressing CRISPR/Cas9. Only the cells in which the insertion was completed and knock-in had progressed were selected, sub-cultured and used.
(2) Treatment of Compounds of the Present Invention and Method of Luciferase Assay
In the case of HeLa LgBit (Plk1-HiBit KI), the compounds were treated after being released after thymidine block, and the process was as follows. Thymidine (Sigma-Aldrich Cat. No. T9250-5G) was completely dissolved in DW and used in the experiment. For thymidine block, the products were treated with 2 mM of thymidine and then incubated for 24 hours. For release and chemical treatment, the medium was suctioned and washed with 1×PBS. TrypLE™ was added and incubated in 37° C. CO2 incubator for 5 min. Cells neutralized by adding complete media were counted through a counter. For each well of a 96-well culture plate (SPL), 3.3×10^4 cells and a total medium volume of 150 μL were seeded and incubated in a CO2 incubator.
Each cell line was incubated in a CO2 incubator for 18 hours, and Endurazine was added to each well to make up 4% of the total volume. After adding the compound of the present invention in a 96-well white plate (SPL) to a concentration of 300 nM, the wavelength of the plate reader (BMG Labtech, CLARIOstar Plus) was set to […], and then the luminescence was tracked in real time.
In Table 2, Activity represents the ratio of the luminescense value of each Exemplary Compound treatment group to DMSO treatment group (+++: <0.3, ++<0.6, +<0.7).

[1] = read-out: Activity: IC50 value to MRC-5 cell line (Comparative Compounds)
[2] = MRC-5 normal cell line, 5 days, EZ-Cytox, 10000 nM to 1.52 nM, read-out: Activity: IC50 value to MRC-5 cell line (Exemplary Compounds)

T1 sequence (P53350 whole entry): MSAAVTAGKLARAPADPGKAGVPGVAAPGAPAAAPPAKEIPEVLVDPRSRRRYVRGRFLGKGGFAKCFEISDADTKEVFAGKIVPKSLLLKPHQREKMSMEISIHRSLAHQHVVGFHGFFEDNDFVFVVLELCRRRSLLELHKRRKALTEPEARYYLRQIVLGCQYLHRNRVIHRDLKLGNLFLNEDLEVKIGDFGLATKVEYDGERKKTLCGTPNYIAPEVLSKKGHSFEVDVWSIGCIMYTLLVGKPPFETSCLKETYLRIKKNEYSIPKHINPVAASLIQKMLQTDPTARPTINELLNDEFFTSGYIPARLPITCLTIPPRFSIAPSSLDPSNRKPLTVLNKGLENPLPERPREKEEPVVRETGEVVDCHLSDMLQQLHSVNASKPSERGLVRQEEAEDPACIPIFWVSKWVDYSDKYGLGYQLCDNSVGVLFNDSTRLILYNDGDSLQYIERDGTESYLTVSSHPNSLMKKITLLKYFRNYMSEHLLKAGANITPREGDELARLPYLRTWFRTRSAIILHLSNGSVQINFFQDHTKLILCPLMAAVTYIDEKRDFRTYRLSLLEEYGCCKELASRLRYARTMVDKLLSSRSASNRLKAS

remaining activity at 0.3 µM (PLK1) [%]	Structure (SMILES)	IC50 (NCI-H526 cell line) [nM]	other results
< 60	COc1cc(C(=O)NC2CC3(CCN(CC4CCN(c5cccc(C6CCC(=O)NC6=O)c5)CC4)CC3)C2)ccc1Nc1ncc2c(n1)N(C1CCCC1)CC(F)(F)C(=O)N2C (stereo not shown) [Compound 41, 4-((9-cyclopentyl-7,7-difluoro-5-methyl-6-oxo-6,7,8,9-tetrahydro-5H-pyrimido[4,5-b][1,4]diazepin-2-yl)amino)-N-(7-((1-(3-(2,6-dioxopiperidin-3-yl)phenyl)piperidin-4-yl)methyl)-7-azaspiro[3.5]nonan-2-yl)-3-methoxybenzamide]	< 30	
< 30	COc1cc(C(=O)NC2CCN(C3CN(c4ccc(C5CCC(=O)NC5=O)cc4F)C3)CC2)ccc1Nc1ncc2c(n1)N(C1CCCC1)CC(F)(F)C(=O)N2C (stereo not shown) [Compound 42, 4-((9-cyclopentyl-7,7-difluoro-5-methyl-6-oxo-6,7,8,9-tetrahydro-5H-pyrimido[4,5-b][1,4]diazepin-2-yl)amino)-N-(1-(1-(4-(2,6-dioxopiperidin-3-yl)-2-fluorophenyl)azetidin-3-yl)piperidin-4-yl)-3-methoxybenzamide]	< 30	
< 60	COc1cc(C(=O)NN2CCC(C3CN(c4ccc(C5CCC(=O)NC5=O)cc4F)C3)CC2)ccc1Nc1ncc2c(n1)N(C1CCCC1)CC(F)(F)C(=O)N2C (stereo not shown) [Compound 43, 4-((9-cyclopentyl-7,7-difluoro-5-methyl-6-oxo-6,7,8,9-tetrahydro-5H-pyrimido[4,5-b][1,4]diazepin-2-yl)amino)-N-(4-(1-(4-(2,6-dioxopiperidin-3-yl)-2-fluorophenyl)azetidin-3-yl)piperidin-1-yl)-3-methoxybenzamide]	< 50	
< 60	COc1cc(C(=O)NN2CC3(CCN(CC4CCN(c5ccc(C6CCC(=O)NC6=O)cc5F)CC4)CC3)C2)ccc1Nc1ncc2c(n1)N(C1CCCC1)CC(F)(F)C(=O)N2C (stereo not shown) [Compound 44]	< 30	
< 30	COc1cc(C(=O)NC2CC3(CCN(C[C@@H]4CCN(c5ccc(C6CCC(=O)NC6=O)cc5F)C[C@@H]4F)CC3)C2)ccc1Nc1ncc2c(n1)N(C1CCCC1)CC(F)(F)C(=O)N2C (stereo partly drawn) [Compound 46, −((9-cyclopentyl-7,7-difluoro-5-methyl-6-oxo-6,7,8,9-tetrahydro-5H-pyrimido[4,5-b][1,4]diazepin-2-yl)amino)-N-(7-(((3R,4S)-1-(4-(2,6-dioxopiperidin-3-yl)-2-fluorophenyl)-3-fluoropiperidin-4-yl)methyl)-7-azaspiro[3.5]nonan-2-yl)-3-methoxybenzamide]		

Further lines, the compound ahead of its results:

Structure (SMILES)	remaining activity at 0.3 µM (PLK1) [%]	IC50 (NCI-H526 cell line) [nM]	other results
CC[C@@H]1C(=O)N(C)c2cnc(Nc3ccc(C(=O)NCCOCCOCCNc4cccc5c4C(=O)N(C4CCC(=O)NC4=O)C5=O)cc3OC)nc2N1C1CCCC1 (stereo partly shown) [Comparative Compound 1, reference compound]			IC50 (MRC-5 cell line; MRC-5 normal cell line, 5 days, EZ-Cytox, 10000 nM to 1.52 nM, read-out: Activity: IC50 value to MRC-5 cell line (Comparative Compounds)): 107 nM; cytotoxicity in normal cell line (MRC-5 cell line; MRC-5 normal cell line, statement in words): high level of cytotoxicity
CC[C@@H]1C(=O)N(C)c2cnc(Nc3ccc(C(=O)NC4CCN(C)CC4)cc3OC)nc2N1C1CCCC1 [Comparative Compound 2, BI2536, reference compound]			IC50 (MRC-5 cell line; [1]): 3090 nM
CC[C@@H]1C(=O)N(C)c2cnc(Nc3ccc(C(=O)N[C@H]4CC[C@H](N5CCN(CC6CC6)CC5)CC4)cc3OC)nc2N1C(C)C [Comparative Compound 3, Volasertib, reference compound]			IC50 (MRC-5 cell line; [1]): 2940 nM
COc1cc(C(=O)NC2CCN(C)CC2)c(F)cc1Nc1ncc2c(n1)N(C1CCCC1)CC(F)(F)C(=O)N2C [Comparative Compound 4, TAK960, reference compound]			IC50 (MRC-5 cell line; [1]): 9150 nM
COc1cc(C(=O)NC2CCN(CCOCCOCCOCCOCCNc3ccc(C4CCC(=O)NC4=O)cc3)CC2)c(F)cc1Nc1ncc2c(n1)N(C1CCCC1)CC(F)(F)C(=O)N2C (stereo not shown) [Compound 1, 4-((9-cyclopentyl-7,7-difluoro-5-methyl-6-oxo-6,7,8,9-tetrahydro-5H-pyrimido[4,5-b][1,4]diazepin-2-yl)amino)-N-(1-(14-((4-(2,6-dioxopiperidin-3-yl)phenyl)amino)-3,6,9,12-tetraoxatetradecyl)piperidin-4-yl)-2-fluoro-5-methoxybenzamide]	< 60	< 50	IC50 (MRC-5 cell line; [2]): 25600 nM
COc1cc(C(=O)NC2CCN(C(=O)CCCOc3cccc(C4CCC(=O)NC4=O)c3)CC2)c(F)cc1Nc1ncc2c(n1)N(C1CCCC1)CC(F)(F)C(=O)N2C (stereo not shown) [Compound 2, 4-((9-cyclopentyl-7,7-difluoro-5-methyl-6-oxo-6,7,8,9-tetrahydro-5H-pyrimido[4,5-b][1,4]diazepin-2-yl)amino)-N-(1-(4-(3-(2,6-dioxopiperidin-3-yl)phenoxy)butanoyl)piperidin-4-yl)-2-fluoro-5-methoxybenzamide]	< 60	< 50	IC50 (MRC-5 cell line; [2]): > 10000 nM
COc1cc(OCC2CC3(CCN(CC4CCN(c5ccc(C6CCC(=O)NC6=O)cc5F)CC4)CC3)C2)ccc1Nc1ncc2c(n1)N(C1CCCC1)CC(F)(F)C(=O)N2C (stereo not shown) [Compound 17, 3-(4-(4-((2-((4-((9-cyclopentyl-7,7-difluoro-5-methyl-6-oxo-6,7,8,9-tetrahydro-5H-pyrimido[4,5-b][1,4]diazepin-2-yl)amino)-3-methoxyphenoxy)methyl)-7-azaspiro[3.5]nonan-7-yl)methyl)piperidin-1-yl)-3-fluorophenyl)piperidine-2,6-dione]	< 30	< 200	
COc1cc(C(=O)NN2CCC(N3CC4(CCN(c5ccc(C6CCC(=O)NC6=O)cc5F)CC4)C3)CC2)ccc1Nc1ncc2c(n1)N(C1CCCC1)CC(F)(F)C(=O)N2C (stereo not shown) [Compound 18, 4-((9-cyclopentyl-7,7-difluoro-5-methyl-6-oxo-6,7,8,9-tetrahydro-5H-pyrimido[4,5-b][1,4]diazepin-2-yl)amino)-N-(4-(7-(4-(2,6-dioxopiperidin-3-yl)-2-fluorophenyl)-2,7-diazaspiro[3.5]nonan-2-yl)piperidin-1-yl)-3-methoxybenzamide]	< 60	< 30	
COc1cc(C(=O)NC2CC23CCN(CC2CCN(c4ccc(C5CCC(=O)NC5=O)cc4F)CC2)CC3)ccc1Nc1ncc2c(n1)N(C1CCCC1)CC(F)(F)C(=O)N2C (stereo not shown) [Compound 23, 4-((9-cyclopentyl-7,7-difluoro-5-methyl-6-oxo-6,7,8,9-tetrahydro-5H-pyrimido[4,5-b][1,4]diazepin-2-yl)amino)-N-(6-((1-(4-(2,6-dioxopiperidin-3-yl)-2-fluorophenyl)piperidin-4-yl)methyl)-6-azaspiro[2.5]octan-1-yl)-3-methoxybenzamide]	< 30	< 30	
COc1cc(C(=O)NC2CC3(CCN(CC4CCN(c5cccc(N6CCC(=O)NC6=O)c5)CC4)CC3)C2)ccc1Nc1ncc2c(n1)N(C1CCCC1)CC(F)(F)C(=O)N2C [Compound 34, 4-((9-cyclopentyl-7,7-difluoro-5-methyl-6-oxo-6,7,8,9-tetrahydro-5H-pyrimido[4,5-b][1,4]diazepin-2-yl)amino)-N-(7-((1-(3-(2,4-dioxotetrahydropyrimidin-1(2H)-yl)phenyl)piperidin-4-yl)methyl)-7-azaspiro[3.5]nonan-2-yl)-3-methoxybenzamide]	< 60	< 30	
